Measured values published in patent US9808441B2, “Dietary supplement containing alkaline electrolyte buffers” (priority 1999, dated 2017).

Assay: pH of dietary/therapeutic supplements, alkaline minerals and supplement compositions
Assay type: physicochemical
Settings: dietary or therapeutic supplement prior to combination with alkaline minerals (table)
Source text: It is noted that wherein pH is referred to for a dry or non-liquid material, it means where the material is mixed with a liquid, such as in the body of a user.
When an individual takes any one of these supplements with the meal, the body begins the digestion process of the supplement and the meal and the body begins to try to eliminate resulting waste due to needed raise in pH and to buffer the system. The body will utilize any buffer that can be found within the food, supplement, and after that will begin to draw the alkaline minerals from within the system itself.
For `N[C@H]1C(O)O[C@H](CO)[C@@H](O)[C@@H]1O` (stereo partly drawn) [Glucosamine], the pH was 5.5. Vitamin E showed a pH of 6.1. `O=C(O)c1cccnc1` [Niacin] showed a pH of 3.4. Compound `[Zn]` [Zinc] has a pH of 3.5. `O=C1O[C@H]([C@@H](O)CO)C(O)=C1O` [Ascorbic Acid] showed a pH of 3.23.

Same assay, conditions: lower value, 'and up depending upon the form' of the mineral
With `[K+]` [potassium] the “pH of alkaline mineral” value was at least 9.69. For `[Ca+2]` [calcium], the “pH of alkaline mineral” value was at least 8.28. For `[Mg+2]` [magnesium], the “pH of alkaline mineral” value was at least 7.20.

Same assay, conditions: supplement or ingredient alone, without alkaline electrolytes (text; typical/normal value)
With `O=C1O[C@H]([C@@H](O)CO)C(O)=C1O` [Ascorbic Acid] the pH was “about 3.23”.
